Results taken from paper PMC3660367, “MARCKS Protein Is Phosphorylated and Regulates Calcium Mobilization during Human Acrosomal Exocytosis” (PLoS ONE, 2013).
No end group written: not given here.

Legend:
[1] = test system: acrosomal exocytosis in non-permeabilized human sperm; assay: Acrosomal exocytosis assay in non-permeabilized (living) human sperm; format: cell-based
Description: Acrosomal exocytosis assays were performed as previously described. Briefly, human semen obtained from normal healthy donors was allowed to liquefy for 30-60 min at 37°C. We used a swim-up protocol to isolate highly motile sperm under capacitating conditions in Human Tubal Fluid media (HTF, as formulated by Irvine Scientific, Santa Ana, CA) supplemented with 0.5% bovine serum albumin (BSA) for 1 h at 37°C in an atmosphere of 5% CO2/95% air. Sperm concentrations were adjusted to 5–10×10^6 cells/ml and incubated for at least 2 h under capacitating conditions. We have shown previously that human sperm incubated under these conditions are responsive to progesterone. […] Acrosomal status was evaluated by staining with FITC-coupled Pisum sativum agglutinin (FITC-PSA) according to [21]. At least 200 cells were scored using a Nikon Optiphot II microscope equipped with epifluorescence optics. […] For each experiment, acrosomal exocytosis indexes were calculated by subtracting the number of reacted spermatozoa in the negative control (range 10%–30%) from all values, and expressing the resulting values as a percentage of the acrosome exocytosis observed in the positive control (range 25%–40%). […] Data were evaluated using one-way ANOVA and post hoc tests (Dunnett's test or confident intervals). […]

[2] = test system: living human sperm; assay: Permeation of ED-TMR into non-permeabilized human sperm (fluorescence microscopy, trypsin treatment before fixation); format: cell-based; details: 4 µM ED-TMR 30 min 37°C, then 0.5 µg/ml trypsin 30 min 37°C before fixation
Source text: So far all results were obtained using the SLO-permeabilized human sperm model. […] Fortunately, MARCKS ED meets this requirement and it can be assayed in acrosomal exocytosis in non-permeabilized sperm. To investigate the function of MARCKS in intact cells, we analyzed the effect of a permeable peptide corresponding to wt MARCKS ED in living human sperm. We used a commercial MARCKS peptide, the tetramethylrhodamine-conjugated peptide sequence KKRFSFKKSFKL (ED-TMR) derived from amino acid residues 154 –165 of human MARCKS ED, which retains the first two of the four serine residues in the ED (see peptide scheme in Fig. 3A). First, we determined the permeability of ED-TMR in living human sperm (see Fig. S3). To rule out that the translocation of the protein was a fixation artifact, cells were treated with trypsin before fixation. […] A similar permeable MARCKS peptide has been used in sea urchin sperm and it was found enriched in the acrosome region.
Supplementary file pone.0064551.s003.tif: Figure S3 MARCKS peptide permeates into non-permeabilized sperm. (A) Non-permeabilized sperm were treated for 30 minutes at 37°C with 4 µM permeable MARCKS ED domain (ED-TMR) and then incubated with (+) or without (-) 0.5 µg/ml trypsin for 30 minutes at 37°C. […] (B) Quantification of tetramethylrhodamine-labeled acrosome sperm. At least 300 cells were scored. […]

Sequence: KKRFSFKKSFKL (also: tetramethylrhodamine conjugate, site not given here) [ED-TMR, commercial (Anaspec) tetramethylrhodamine-conjugated peptide … from residues 154–165 of human MARCKS ED]
- effect on acrosomal exocytosis stimulated by A23187, PMA and progesterone ([1]; non-permeabilized capacitated sperm, peptide 30 min 37°C, then 10 µM A23187, 200 nM PMA or 15 µM progesterone 15 min): inhibited the secretion
- acrosomal exocytosis index at high concentrations versus unstimulated controls (basal exocytosis) ([1]; non-permeabilized sperm, high concentrations): significantly lower than the index in unstimulated controls
- permeability of ED-TMR in living human sperm (localisation) [2]: detected mainly in the head of human sperm
